How the values were obtained:
Assay in all cases: CTG-3D luminescence at 96 h relative to day-0 seeding control (ratio to day 0); higher = more growth / less cytotoxicity; PDxO 3D drug screen, 96 h, CTG-3D normalised to day-0 seeding control.
[1] = test system: HCI-010 (organoid from a breast cancer xenograft)
[2] = test system: HCI-001 (organoid from a triple-negative breast cancer xenograft)
[3] = test system: HCI-016 (organoid from a triple-negative breast cancer xenograft)
[4] = test system: HCI-003.E2 (organoid from an ER-positive breast cancer xenograft)

CCN1CCN(Cc2ccc(Nc3ncc(F)c(-c4cc(F)c5nc(C)n(C(C)C)c5c4)n3)nc2)CC1 [abemaciclib]
CTG-3D luminescence at 96 h
Conditions	12.5 pM	0.00025 µM	0.005 µM	0.1 µM	1 µM	10 µM	100 µM	625 fM
[1], days in culture: 52	1.92	2.34	2.3	2.47	1.99	0.77	0.0133	2.09
[1], days in culture: 65	1.68	1.83	2.02	1.78	1.2	0.0257	0.00729	1.65
[1], days in culture: 103	3.48	3.18	3.28	3.44	3.5	2.6	0.0301	2.98
[2], days in culture: 240	1.34	0.584	0.704	0.897	1.37	0.799	0.012	1.47
[2], days in culture: 260	2.51	1.22	1.6	1.75	1.37	1.23	0.00996	2.02
[2], days in culture: 269	1.53	1.73	1.69	1.38	1.17	0.68	0.0115	1.67
[2], days in culture: 327	1.46	1.41	1.87	1.58	1.36	1.12	0.0169	1.75
[2], days in culture: 346	1.39	1.37	1.18	1.14	1.17	1.35	0.0179	1.19
[2], days in culture: 364	1.39	1.1	1.38	0.914	0.909	1.22	0.0124	1.72
[3], days in culture: 153	2.82	2.09	2.87	1.71	1.14	0.355	0.0128	2.64
[3], days in culture: 172	2.12	1.72	1.43	1.67	1.25	0.322	0.0115	1.34
[3], days in culture: 190	1.98	1.4	1.32	1.35	1.26	0.196	0.00813	1.43
[3], days in culture: 199	1.89	1.75	2.03	1.74	1.21	0.0238	0.00916	1.85

[4]
Conditions	CTG-3D luminescence at 96 h
12.5 pM	2.17
0.00025 µM	2.14
0.005 µM	2.02
0.1 µM	2.27
1 µM	1.98
10 µM	0.491
100 µM	0.00596
625 fM	1.87

Cc1nc(-c2cn3c(n2)-c2ccc(-c4cnn(C(C)(C)C(N)=O)c4)cc2OCC3)n(C(C)C)n1 [taselisib]
CTG-3D luminescence at 96 h
Conditions	12.5 pM	0.00025 µM	0.005 µM	0.1 µM	1 µM	10 µM	100 µM	625 fM
[1], days in culture: 52	2.17	2.09	1.97	2.31	1.65	0.735	0.0132	2.15
[1], days in culture: 65	1.89	1.84	1.88	1.78	1.24	0.457	0.00794	1.82
[1], days in culture: 103	3.55	3.66	3.45	3.46	2.33	0.906	0.0169	2.92
[2], days in culture: 240	1.68	0.982	1.07	0.482	0.567	0.383	0.093	1.22
[2], days in culture: 260	2.04	1.03	1.04	0.934	0.486	0.536	0.019	1.57
[2], days in culture: 269	1.61	1.56	1.43	1.21	0.629	0.576	0.0422	1.86
[2], days in culture: 327	1.4	1.39	1.7	1.66	0.874	0.542	0.213	1.84
[2], days in culture: 346	1.31	1.22	1.02	1.1	1.15	0.603	0.269	1.12
[2], days in culture: 364	1.5	1.06	1.37	0.786	0.791	0.737	0.0204	1.53
[3], days in culture: 153	3	1.97	2.05	1.75	1.93	1.68	1.08	2.05
[3], days in culture: 172	2.1	1.26	1.83	1.06	1.32	0.704	0.881	1.53
[3], days in culture: 190	1.8	1.3	1.49	1.25	1.07	0.971	0.254	1.2
[3], days in culture: 199	1.68	1.68	1.69	1.49	1.48	0.98	0.362	1.95

[4]
Conditions	CTG-3D luminescence at 96 h
12.5 pM	2.19
0.00025 µM	2.28
0.005 µM	1.77
0.1 µM	0.633
1 µM	0.183
10 µM	0.0364
100 µM	0.0189
625 fM	2.14

CC(C)n1nc(-c2ccc3oc(N)nc3c2)c2c(N)ncnc21 [sapanisertib]
CTG-3D luminescence at 96 h
Conditions	12.5 pM	0.00025 µM	0.005 µM	0.1 µM	1 µM	10 µM	100 µM	625 fM
[1], days in culture: 52	2.19	2.6	1.89	0.958	0.693	0.249	0.011	2.4
[1], days in culture: 65	1.61	1.71	1.34	0.701	0.447	0.0873	0.00591	1.71
[1], days in culture: 103	3.65	3.1	3	1.48	1.26	0.555	-0.00132	3.02
[2], days in culture: 240	1.65	0.951	0.588	0.395	0.551	0.311	0.187	1.12
[2], days in culture: 260	2.4	1.29	1.61	0.622	0.652	0.468	0.21	1.6
[2], days in culture: 269	1.45	1.79	1.19	0.45	0.559	0.643	0.22	1.56
[2], days in culture: 327	1.36	0.761	1.33	0.802	0.759	0.319	0.111	1.75
[2], days in culture: 346	1.38	1.32	1.09	0.528	0.577	0.315	0.15	1.13
[2], days in culture: 364	1.44	1.12	1.21	0.397	0.464	0.318	0.14	1.46
[3], days in culture: 153	2.9	1.03	2.18	0.842	0.922	0.411	0.0999	3.03
[3], days in culture: 172	1.87	2.06	1.85	0.699	0.584	0.407	0.191	1.68
[3], days in culture: 190	1.66	1.47	1.49	0.534	0.464	0.421	0.149	1.23
[3], days in culture: 199	1.5	1.27	1.33	0.585	0.511	0.374	0.119	1.63

[4]
Conditions	CTG-3D luminescence at 96 h
12.5 pM	2.24
0.00025 µM	2.55
0.005 µM	1.59
0.1 µM	0.0566
1 µM	0.0162
10 µM	0.0035
100 µM	-0.00157
625 fM	2.03

CS(=O)(=O)c1ccc(C(=O)Nc2ccc(Cl)c(-c3ccccn3)c2)c(Cl)c1 [vismodegib]
CTG-3D luminescence at 96 h
Conditions	12.5 pM	0.00025 µM	0.005 µM	0.1 µM	1 µM	10 µM	100 µM	625 fM
[1], days in culture: 52	1.83	1.98	2.08	2.26	2.4	2.15	0.825	1.78
[1], days in culture: 65	1.54	1.74	1.56	1.6	1.71	1.5	0.574	1.59
[1], days in culture: 103	2.84	3.06	3	3.14	2.91	2.62	1.52	2.8
[2], days in culture: 240	1.85	1.26	0.998	1.03	1.5	1.19	0.836	2.27
[2], days in culture: 260	2.49	1.08	2.27	1.74	1.57	1.91	0.909	1.99
[2], days in culture: 269	1.57	1.89	1.55	1.36	1.13	1.83	0.861	1.51
[2], days in culture: 327	2.09	1.61	2.29	1.87	1.93	1.2	1.19	1.94
[2], days in culture: 346	1.82	1.38	1.23	1.34	1.47	1.65	1.35	1.34
[2], days in culture: 364	1.66	1.26	1.67	1.34	1.47	1.71	1.1	1.64
[3], days in culture: 153	3.24	1.78	2.91	1.54	2.95	1.79	0.626	2.46
[3], days in culture: 172	2.24	1.87	1.95	1.87	2.13	1.47	0.75	2.02
[3], days in culture: 190	2.13	1.28	1.74	1.58	1.72	1.66	0.376	1.7
[3], days in culture: 199	2.04	1.97	2.17	2.07	2.19	2.01	0.655	2.15

[4]
Conditions	CTG-3D luminescence at 96 h
12.5 pM	1.92
0.00025 µM	2.03
0.005 µM	1.93
0.1 µM	2.17
1 µM	2.08
10 µM	1.96
100 µM	0.299
625 fM	1.94

C[C@H](NC(=O)CCC(F)(F)F)C(=O)N[C@@H]1C(=O)N(CCO)c2ncccc2-c2ccccc21 [crenigacestat]
CTG-3D luminescence at 96 h
Conditions	12.5 pM	0.00025 µM	0.005 µM	0.1 µM	1 µM	10 µM	100 µM	625 fM
[1], days in culture: 52	2.36	2.09	2.19	2.54	2.37	2.23	2.04	2
[1], days in culture: 65	1.61	1.63	1.79	1.64	1.79	1.6	1.45	1.67
[1], days in culture: 103	3.59	3.73	3.34	3.15	3.09	2.87	2.58	2.85
[2], days in culture: 240	1.25	1.04	1.03	0.845	1.36	1.2	1.45	0.941
[2], days in culture: 260	2.03	0.875	1.52	1.34	1.54	1.84	1.12	1.44
[2], days in culture: 269	1.62	1.6	1.37	1.29	1.39	2.1	2	1.33
[2], days in culture: 327	1.46	1.4	1.63	1.87	1.24	1.06	1.64	1.76
[2], days in culture: 346	1.3	1.2	1.1	1.08	1.32	1.35	1.76	1.11
[2], days in culture: 364	1.4	1.08	1.35	1	1.1	1.27	1.1	1.43
[3], days in culture: 153	2.83	1.83	2.67	1.66	2.21	2.33	2.19	2.92
[3], days in culture: 172	2.16	1.87	1.71	1.66	1.58	1.14	1.76	1.73
[3], days in culture: 190	1.45	1.02	1.29	0.549	0.838	1.52	1.74	0.976
[3], days in culture: 199	1.48	1.3	1.49	1.38	1.78	1.57	1.73	1.76

[4]
Conditions	CTG-3D luminescence at 96 h
12.5 pM	2.2
0.00025 µM	2.4
0.005 µM	2.11
0.1 µM	2.4
1 µM	2.16
10 µM	2.09
100 µM	1.64
625 fM	2.07
